From paper PMC4925160, “Mode of action of DNA-competitive small molecule inhibitors of tyrosyl DNA phosphodiesterase 2” (Biochemical Journal, 2016)
pIC50: −log10 of the molar value.

Target: T1, tyrosyl-DNA phosphodiesterase 2 (hTDP2-CAT) (Homo sapiens, UniProt O95551, C273S)
T1 construct: gene TDP2; catalytic domain, residues 113–362
T1 sequence (O95551 113-362 C273S): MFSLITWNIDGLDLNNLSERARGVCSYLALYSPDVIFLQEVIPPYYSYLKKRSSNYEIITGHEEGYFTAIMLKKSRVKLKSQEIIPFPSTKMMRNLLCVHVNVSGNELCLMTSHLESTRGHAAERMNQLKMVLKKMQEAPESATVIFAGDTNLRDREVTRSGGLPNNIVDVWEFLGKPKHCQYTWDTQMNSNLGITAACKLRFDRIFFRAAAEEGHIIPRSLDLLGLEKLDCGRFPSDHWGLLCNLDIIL
Assay: fluorescence-based […]'-phosphotyrosyl oligonucleotide enzyme assay
Format: biochemical

pIC50: 6.31
Structure (SMILES): N#Cc1ccc2cc3c(=O)[nH]c(=O)nc-3n(-c3cccc(CO)c3)c2c1 [compound 149, 149]
